In US20240173347A1, “COMPOSITIONS FOR RAISING NAD LEVELS AND METHODS AND USES THEREOF” (ACCURI, LLC, priority 2022, published 2024):

Test system: intracellular NAD
Assay: Intracellular NAD levels in users before and after supplementation
Type: in vivo, human
Settings: intravenous infusion, 5 sessions of 750 mg

NC(=O)c1ccc[n+]([C@@H]2O[C@H](COP(=O)([O-])OP(=O)(O)OC[C@H]3O[C@@H](n4cnc5c(N)ncnc54)[C@H](O)[C@@H]3O)[C@@H](O)[C@H]2O)c1 [NAD+, Nicotinamide adenine dinucleotide]
Effect on intracellular NAD levels: does not increase
